Test results as given in patent US6358883B1, “Pesticidal and parasiticidal use of 1-aryl-1-(substituted thio, sulfinyl and sulfonyl)-2-nitroethane compounds” (American Cyanamid Company, priority 1998, dated 2002).

Assays:
Format in all cases: in vivo
[1] = system: M. incognita (Root Knot Nematode) larvae; assay: Evaluation of test compounds against M. incognita larvae in microtiter plate wells (movement score); settings: larvae scored for movement after 20-24 hours; note: key: A score of '9' indicates inactive worms with a straight, sticklike morphology; A score of '8' indicates inactive worms with a limp, curled or curved morphology; A score of '7' indicates dead/paralyzed worms after 72 hours
Experimental: Evaluation of Test Compounds Against M. incognita (Root Knot Nematode)
Newly emerged M. incognita larvae are suspended in S Medium (buffered salt solution) to a concentration of 50-65 worms per 50 μl. 50 μl of the worm suspension are pipetted into microtiter plate wells containing the test compounds. The plates are then covered with plactic plate sealers to reduce loss of volume by evaporation. After 20-24 hours of incubation, the larvae are scored for movement. Wells containing obviously dead/paralyzed larvae are scored as positive. […] A score of “7” indicates dead/paralyzed worms after […].

[2] = system: C. elegans (Bristol strain); assay: Evaluation of test compounds against C. elegans (motility, 96-well plate); set-up: key: 9=complete kill in 4 hours; 8=complete kill in 24 hours; 7=markedly reduced motility in approximately 95% of worms in 24 hours; 0=normal motility, same as controls; settings: motility at 4 and 24 hours
Experimental: Evaluation of Test Compounds Against C. elegans Cultures of C. elegans (Bristol strain from J. Lewis) are maintained on E. coli lawns on NG Agar Plates at 20° C. New cultures are established weekly. Nematodes for testing are washed from cultures using Na buffer. Compounds are dissolved in 80% acetone. The test material is micropipetted (25 μl) into a single well of a 96-well sterile tissue culture plate and the solvent allowed to evaporate. A freshly prepared volume (50 μl) of C. elegans in Na buffer is micropipetted into each treated well and several control wells per plate. Plates are incubated at 20° C. Observations for efficacy are made under a dissecting microscope at 4 and 24 hours post-immersion. Immediately prior to reading the plate, it is gently tapped to stimulate the movement of the worms. Activity is judged subjectively, but semi-quantitatively, based on the drug effects on motility of the adults and larvae.

[3] = system: Spodoptera eridania, 2nd instar larvae, southern armyworm (SAW); assay: Southern armyworm (SAW) leaf dip test; set-up: key: 0 = no effect; 1 = 10-25% kill; 2 = 26-35% kill; 3 = 36-45% kill; 4 = 46-55% kill; 5 = 56-65% kill; 6 = 66-75% kill; 7 = 76-85% kill; 8 = 86-99% kill; 9 = 100% kill
Experimental: (§1) Test solutions are prepared by dissolving the test compound in a 35% acetone in water mixture to give a concentration of 10,000 ppm. Subsequent dilutions are made with water as needed.
Spodoptera eridania, 2nd Instar Larvae, Southern Armyworm (SAW)
A Sieva lima bean leaf expanded to 7-8 cm in length is dipped in the test solution with agitation for 3 seconds and allowed to dry in a hood. The leaf is then placed in a 100×10 mm petri dish containing a damp filter paper on the bottom and ten 2nd instar caterpillars. At 5 days, observations are made of mortality, reduced feeding, or any interference with normal molting.

[4] = system: Diabrotica virgifera virgifera Leconte, 2nd instar western corn rootworm (WCR); assay: Western corn rootworm (WCR) soil test; set-up: key: 0 = no effect; 1 = 10-25% kill; 2 = 26-35% kill; 3 = 36-45% kill; 4 = 46-55% kill; 5 = 56-65% kill; 6 = 66-75% kill; 7 = 76-85% kill; 8 = 86-99% kill; 9 = 100% kill
Experimental: Test solutions are prepared by dissolving the test compound in a 35% acetone in water mixture to give a concentration of 10,000 ppm. Subsequent dilutions are made with water as needed. Diabrotica virgifera virgifera Leconte, 2nd Instar Western Corn Rootworm (WCR) One cc of fine talc is placed in a 30 mL wide-mouth screw-top glass jar. One mL of the appropriate acetone test solution is pipetted onto the talc so as to provide 1.25 mg of active ingredient per jar. The jars are set under a gentle air flow until the acetone is evaporated. The dried talc is loosened, 1 cc of millet seed is added to serve as food for the insects and 25 mL of moist soil is added to each jar. The jar is capped and the contents thoroughly mixed mechanically. Following this, ten 2nd instar rootworms are added to each jar and the jars are loosely capped to allow air exchange for the larvae. The treatments are held for 5 days when mortality counts are made. Missing larvae are presumed dead, since they decompose rapidly and cannot be found. The concentrations of active ingredient used in this test correspond approximately to 50 kg/ha. [table]

[5] = system: Tetranychus urticae (OP-resistant strain), 2-spotted spider mite (TSM); assay: 2-spotted spider mite (TSM) plant dip test; set-up: key: 0 = no effect; 1 = 10-25% kill; 2 = 26-35% kill; 3 = 36-45% kill; 4 = 46-55% kill; 5 = 56-65% kill; 6 = 66-75% kill; 7 = 76-85% kill; 8 = 86-99% kill; 9 = 100% kill; settings: mortality after 2 days
Experimental: as §1
Tetranychus urticae (OP-resistant strain), 2-spotted Spider Mite (TSM)
Sieva lima bean plants with primary leaves expanded to 7-8 cm are selected and cut back to one plant per pot. A small piece is cut from an infested leaf taken from the main colony and placed on each leaf of the test plants. This is done about 2 hours before treatment to allow the mites to move over to the test plant to lay eggs. The size of the cut, infested leaf is varied to obtain about 100 mites per leaf. At the time of test treatment, the piece of leaf used to transfer the mites is removed and discarded. The newly-infested plants are dipped in the test solution for 3 seconds with agitation and set in the hood to dry. After 2 days, one leaf is removed and mortality counts are made.

[6] = system: Aphis gossypii, cotton aphid (CA); assay: Cotton aphid (CA) cotyledon dip test; set-up: key: 0 = no effect; 1 = 10-25% kill; 2 = 26-35% kill; 3 = 36-45% kill; 4 = 46-55% kill; 5 = 56-65% kill; 6 = 66-75% kill; 7 = 76-85% kill; 8 = 86-99% kill; 9 = 100% kill; settings: mortality after 5 days
Experimental: Test solutions are prepared by dissolving the test compound in a 35% acetone in water mixture to give a concentration of 10,000 ppm. Subsequent dilutions are made with water as needed. Aphis gossypii, Cotton Aphid (CA) Cotton plants at the cotyledon stage are selected and cut back to one plant per pot. A heavily infested leaf is taken from the main colony and placed on top of each cotyledon. The aphids are allowed to transfer to the host plant overnight. At the time of test treatment, the leaf used to transfer the aphids is removed and discarded. The cotyledons are dipped in the test solution and allowed to dry. After 5 days, mortality counts are made. [table]

[7] = system: Diabrotica undecimpunctata howardi, eggs-southern corn rootworm (SCR-Eggs); assay: Southern corn rootworm eggs (SCR-Eggs) treated diet test; set-up: key: 0 = no effect; 1 = 10-25% kill; 2 = 26-35% kill; 3 = 36-45% kill; 4 = 46-55% kill; 5 = 56-65% kill; 6 = 66-75% kill; 7 = 76-85% kill; 8 = 86-99% kill; 9 = 100% kill; settings: mortality after 7 days
Experimental: Test solutions are prepared by dissolving the test compound in a 35% acetone in water mixture to give a concentration of 10,000 ppm. Subsequent dilutions are made with water as needed. Spodoptera eridania, Eggs-southern Armyworm and Diabrotica undecimpunctata howardi, Eggs-southern Corn Rootworm (SAW-Eggs) and (SCR-Eggs) Wells containing artificial diet are treated with the test solutions and dried. The appropriate insect eggs are then placed in the wells. The wells are covered with vented, adhesive, clear plastic covers. After 7 days, mortality counts are made. [table]

Structure (SMILES)	M. incognita (150 ppm) score [1]	Rating Against C. elegans (150 ppm) [2]	SAW (300 ppm) rating [3]	WCR (50 ppm) rating [4]	TSM (300 ppm) rating [5]	CA (300 ppm) rating [6]	SCR Eggs (1000 ppm) rating [7]
C=CCSC(C[N+](=O)[O-])c1ccccc1Cl (racemic) [Example 95]	0	0	0	4 (4 = 46-55% kill)	0	0	0
CCCCC(CC)COC(=O)CSC(C[N+](=O)[O-])c1ccccc1F (stereo not drawn) [Example 43]	0	0	4 (4 = 46-55% kill)	7 (7 = 76-85% kill)	0	0	9 (9 = 100% kill)
COC(=O)CSC(C[N+](=O)[O-])c1ccc(Cl)cc1 (stereo not drawn) [Example 70]	9	7	0	0	0	0	
O=C(O)CSC(C[N+](=O)[O-])c1ccccc1F (stereo not drawn) [Example 67]	9	9	0	9 (9 = 100% kill)	0	0	
COC(=O)CSC(C[N+](=O)[O-])c1ccccc1Cl (stereo not drawn) [Example 88]	8		0	0	0	0	0
O=C(O)CSC(C[N+](=O)[O-])c1ccc2c(c1)OCO2 (stereo not drawn) [Example 64]	9	9	0	0	9 (9 = 100% kill)	0	
COc1cccc(C(C[N+](=O)[O-])SCC(=O)O)c1 (stereo not drawn) [Example 68]	9	8	0	3 (3 = 36-45% kill)	0	0	
CCCCOC(=O)CSC(C[N+](=O)[O-])c1ccccc1Cl (stereo not drawn) [Example 90]	8	7	0	0	3 (3 = 36-45% kill)	0	0
CC(C)c1ccc(C(C[N+](=O)[O-])SCC(=O)O)cc1 (stereo not drawn) [Example 66]	9	9	0	8 (8 = 86-99% kill)	0	0	
Cc1ccc(C(C[N+](=O)[O-])SCC(=O)O)cc1 (stereo not drawn) [Example 65]	9	9	0	9 (9 = 100% kill)	0	0	
COc1ccc(C(C[N+](=O)[O-])SCC(=O)O)cc1 (stereo not drawn) [Example 69]	9	9	0	0	0	0	
O=C(O)CSC(C[N+](=O)[O-])c1ccc(Cl)cc1 (stereo not drawn) [Example 78]	9	7	0	0	0	0	
CCOC(=O)CSC(C[N+](=O)[O-])c1ccc(Cl)cc1 (stereo not drawn) [Example 71]	0	7	0	0	0	0	
O=C(O)CSC(C[N+](=O)[O-])c1ccc(F)cc1 (stereo not drawn) [Example 63]	9	9	0	0	0	0	
CCCCOC(=O)CSC(C[N+](=O)[O-])c1ccc(Cl)cc1 (stereo not drawn) [Example 72]	0	0	0	0	0	0	
CCCSC(C[N+](=O)[O-])c1ccc(Cl)cc1 (stereo not drawn) [Example 76]	0	7	0	0	0	0	
O=[N+]([O-])CC(SCc1ccccc1)c1ccc(Cl)cc1 (stereo not drawn) [Example 75]	0	0	0	0	0	0	
CC(C)CCCCCOC(=O)CSC(C[N+](=O)[O-])c1ccc(Cl)cc1 (stereo not drawn) [Example 73]	0	0	0	0	0	0	
